In ChEMBL document CHEMBL4742393, “Compounds for treatment of hypoproliferative disorders” (2019):
Values belong to the molecule of their own block, whether it stands above or below them. Activity calls are given as the source filed them. The calls are words filed in the database; no cut-off is given here.

Experiments:
[1] = tested on: Mus musculus; experiment: Induction of rescue of anemia in RPS19-deficient mouse model for DBA assessed as improvement in erythrocytes production at 10 mg/kg, po dosed every 12 hrs for 5 times and measured 48 hrs after last dose; type: functional, organism-based; conditions: time 108.0 hrs
[2] = Rescue of cell survival defect in RPS19-deficient erythroid progenitor cells isolated from mouse model of DBA assessed as c-kit+ progenitor cell levels at 0.03 uM by 7-AAD dye based FACS analysis (reference value: 38%); type: functional
[3] = tested on: Erythroid progenitor cell; experiment: Rescue of proliferation of CD34+ erythroid progenitor cells isolated from DBA patient with […] mutation at 200 nM measured at day 14 of culture; type: functional, tissue-based; conditions: Homo sapiens, time 14.0 day
[4] = target: T1, CDK8/CDK19 (Mus musculus) (UniProt Q8R3L8+Q8BWD8); experiment: Inhibition of CDK8/CDK19 assessed as rescue of proliferation of RPS19-deficient mouse erythroid progenitor cells by cell-based phenotypic screening assay; type: tissue-based
T1 sequence (Q8BWD8 whole entry, looked up): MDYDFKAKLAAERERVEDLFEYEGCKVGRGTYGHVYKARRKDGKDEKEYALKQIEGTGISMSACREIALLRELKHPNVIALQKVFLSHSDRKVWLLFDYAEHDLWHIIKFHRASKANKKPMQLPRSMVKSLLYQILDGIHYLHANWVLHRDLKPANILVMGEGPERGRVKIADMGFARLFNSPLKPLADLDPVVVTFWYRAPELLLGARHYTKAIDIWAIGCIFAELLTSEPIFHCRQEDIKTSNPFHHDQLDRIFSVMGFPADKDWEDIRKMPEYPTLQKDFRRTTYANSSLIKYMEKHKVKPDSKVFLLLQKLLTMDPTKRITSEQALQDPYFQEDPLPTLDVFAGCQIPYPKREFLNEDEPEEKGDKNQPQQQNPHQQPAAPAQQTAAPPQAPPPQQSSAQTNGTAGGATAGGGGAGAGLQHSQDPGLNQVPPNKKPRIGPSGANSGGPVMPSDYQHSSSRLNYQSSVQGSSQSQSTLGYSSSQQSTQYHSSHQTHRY
T1 sequence (Q8R3L8 whole entry, looked up): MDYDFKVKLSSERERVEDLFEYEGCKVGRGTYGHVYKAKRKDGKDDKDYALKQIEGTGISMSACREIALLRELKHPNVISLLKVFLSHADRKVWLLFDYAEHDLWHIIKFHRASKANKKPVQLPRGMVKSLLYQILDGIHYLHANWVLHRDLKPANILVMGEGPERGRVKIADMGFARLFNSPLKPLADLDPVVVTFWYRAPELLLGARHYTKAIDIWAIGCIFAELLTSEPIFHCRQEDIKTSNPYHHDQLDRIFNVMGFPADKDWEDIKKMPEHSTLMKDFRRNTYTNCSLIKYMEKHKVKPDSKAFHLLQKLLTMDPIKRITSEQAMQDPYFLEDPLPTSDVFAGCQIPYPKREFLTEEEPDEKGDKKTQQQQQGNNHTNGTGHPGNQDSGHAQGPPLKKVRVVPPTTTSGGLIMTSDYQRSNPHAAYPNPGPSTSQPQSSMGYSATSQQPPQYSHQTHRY

[5] = Rescue of cell survival defect in RPS19-deficient erythroid progenitor cells isolated from mouse model of DBA assessed as live cell levels at 0.03 uM by 7-AAD dye based FACS analysis (reference value: 31%); type: functional
[6] = tested on: CD34-positive (myeloid/lymphoid) cell; experiment: Rescue of proliferation of CD34+ erythroid progenitor cells isolated from DBA patient with RPS19 mutation at 200 nM measured at day 14 of culture; type: functional, tissue-based; conditions: Homo sapiens, time 14.0 day
[7] = tested on: Erythroid progenitor cell; experiment: Increase in erythroid maturation of erythroid progenitor cells isolated from DBA patient assessed as increase in CD71 and CD235a positive cells level measured at day 8 of culture by flow cytometry; type: functional, tissue-based; conditions: Homo sapiens
[8] = tested on: CD34-positive (myeloid/lymphoid) cell; experiment: Rescue of proliferation of CD34+ erythroid progenitor cells isolated from DBA patient with RPS26 mutation at 200 nM measured at day 14 of culture; type: functional, tissue-based; conditions: Homo sapiens, time 14.0 day
[9] = target: T1, CDK8/CDK19 (Mus musculus); experiment: Inhibition of CDK8/CDK19 assessed as rescue of proliferation of RPS19-deficient erythroid progenitor cells isolated from mouse model of DBA by cell-based phenotypic screening assay relative to control; type: tissue-based
[10] = organism: Homo sapiens; experiment: Inhibition of GCN2 kinase domain 2 […] mutant (unknown origin) assessed as residual ligand binding level at 10000 nM relative to control
[11] = target: TGF-beta receptor type-1 (Homo sapiens) (UniProt P36897); experiment: Inhibition of TGFBR1 (unknown origin) assessed as residual ligand binding level at 10000 nM relative to control
Sequence of TGF-beta receptor type-1 (Homo sapiens) (P36897 whole entry): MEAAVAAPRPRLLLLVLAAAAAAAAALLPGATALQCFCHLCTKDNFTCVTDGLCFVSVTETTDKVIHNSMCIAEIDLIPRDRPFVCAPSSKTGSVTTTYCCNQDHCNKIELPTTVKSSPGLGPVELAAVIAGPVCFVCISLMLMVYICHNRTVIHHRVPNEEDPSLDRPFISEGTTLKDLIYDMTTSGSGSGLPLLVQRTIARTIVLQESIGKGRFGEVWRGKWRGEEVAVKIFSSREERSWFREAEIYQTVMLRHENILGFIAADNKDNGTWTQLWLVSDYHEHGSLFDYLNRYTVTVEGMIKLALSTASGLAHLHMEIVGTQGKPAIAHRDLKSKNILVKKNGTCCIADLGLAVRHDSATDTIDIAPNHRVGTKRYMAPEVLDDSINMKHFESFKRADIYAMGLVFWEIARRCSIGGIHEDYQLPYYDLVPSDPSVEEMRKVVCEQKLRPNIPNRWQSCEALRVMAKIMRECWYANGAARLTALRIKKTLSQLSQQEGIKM

[12] = target: Mitogen-activated protein kinase 14 (Homo sapiens) (UniProt Q16539); experiment: Inhibition of p38-alpha (unknown origin) assessed as residual ligand binding level at 10000 nM relative to control
[13] = target: Casein kinase I isoform gamma-2 (Homo sapiens) (UniProt P78368); experiment: Inhibition of CSNK1G2 (unknown origin) assessed as residual ligand binding level at 10000 nM relative to control
Sequence of Casein kinase I isoform gamma-2 (Homo sapiens) (P78368 whole entry, looked up, canonical isoform): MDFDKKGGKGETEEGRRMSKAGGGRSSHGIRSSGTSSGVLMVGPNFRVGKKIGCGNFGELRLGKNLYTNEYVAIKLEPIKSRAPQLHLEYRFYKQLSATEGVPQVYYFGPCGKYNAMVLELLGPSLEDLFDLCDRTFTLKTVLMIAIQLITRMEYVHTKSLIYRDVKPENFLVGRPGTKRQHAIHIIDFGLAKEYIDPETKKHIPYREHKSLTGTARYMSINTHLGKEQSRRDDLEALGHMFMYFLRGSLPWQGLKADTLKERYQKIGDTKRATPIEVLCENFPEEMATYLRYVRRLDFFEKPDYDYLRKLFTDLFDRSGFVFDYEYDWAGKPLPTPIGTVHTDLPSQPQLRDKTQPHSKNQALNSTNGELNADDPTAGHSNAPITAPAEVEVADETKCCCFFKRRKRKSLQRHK

[14] = target: Death-associated protein kinase 1 (Homo sapiens) (UniProt P53355); experiment: Inhibition of DAPK1 (unknown origin) assessed as residual ligand binding level at 10000 nM relative to control
[15] = target: Serine/threonine-protein kinase pim-1 (Homo sapiens) (UniProt P11309); experiment: Inhibition of PIM1 (unknown origin) assessed as residual ligand binding level at 10000 nM relative to control
[16] = target: Homeodomain-interacting protein kinase 1 (Homo sapiens) (UniProt Q86Z02); experiment: Inhibition of HIPK1 (unknown origin) assessed as residual ligand binding level at 10000 nM relative to control
[17] = target: Dual specificity tyrosine-phosphorylation-regulated kinase 2 (Homo sapiens) (UniProt Q92630); experiment: Inhibition of DYRK2 (unknown origin) assessed as residual ligand binding level at 10000 nM relative to control
Sequence of Dual specificity tyrosine-phosphorylation-regulated kinase 2 (Homo sapiens) (Q92630 whole entry, the tested form may be a part): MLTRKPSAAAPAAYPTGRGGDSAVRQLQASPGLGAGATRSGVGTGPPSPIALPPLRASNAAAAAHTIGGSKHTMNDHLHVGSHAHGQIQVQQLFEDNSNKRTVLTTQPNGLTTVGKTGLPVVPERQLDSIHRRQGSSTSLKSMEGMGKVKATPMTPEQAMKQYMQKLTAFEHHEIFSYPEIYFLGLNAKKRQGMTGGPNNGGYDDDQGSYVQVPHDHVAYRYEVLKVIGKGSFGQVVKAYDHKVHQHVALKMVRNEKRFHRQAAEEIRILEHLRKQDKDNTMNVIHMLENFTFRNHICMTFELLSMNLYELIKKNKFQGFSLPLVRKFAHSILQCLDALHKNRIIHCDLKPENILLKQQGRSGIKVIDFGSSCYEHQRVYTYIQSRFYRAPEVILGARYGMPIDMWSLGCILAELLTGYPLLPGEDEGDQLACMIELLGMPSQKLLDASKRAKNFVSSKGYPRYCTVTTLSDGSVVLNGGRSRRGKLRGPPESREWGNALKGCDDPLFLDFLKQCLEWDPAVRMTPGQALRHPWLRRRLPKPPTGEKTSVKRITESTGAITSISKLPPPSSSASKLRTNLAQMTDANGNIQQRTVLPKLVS

[18] = target: Ribosomal protein S6 kinase alpha-6 (Homo sapiens) (UniProt Q9UK32); experiment: Inhibition of RSK4 c-terminal kinase domain (unknown origin) assessed as residual ligand binding level at 10000 nM relative to control
[19] = target: Cyclin-dependent kinase 19 (Homo sapiens) (UniProt Q9BWU1); experiment: Inhibition of CDK19(CDK11) (unknown origin) assessed as residual ligand binding level at 10000 nM relative to control
Sequence of Cyclin-dependent kinase 19 (Homo sapiens) (Q9BWU1 whole entry, canonical isoform): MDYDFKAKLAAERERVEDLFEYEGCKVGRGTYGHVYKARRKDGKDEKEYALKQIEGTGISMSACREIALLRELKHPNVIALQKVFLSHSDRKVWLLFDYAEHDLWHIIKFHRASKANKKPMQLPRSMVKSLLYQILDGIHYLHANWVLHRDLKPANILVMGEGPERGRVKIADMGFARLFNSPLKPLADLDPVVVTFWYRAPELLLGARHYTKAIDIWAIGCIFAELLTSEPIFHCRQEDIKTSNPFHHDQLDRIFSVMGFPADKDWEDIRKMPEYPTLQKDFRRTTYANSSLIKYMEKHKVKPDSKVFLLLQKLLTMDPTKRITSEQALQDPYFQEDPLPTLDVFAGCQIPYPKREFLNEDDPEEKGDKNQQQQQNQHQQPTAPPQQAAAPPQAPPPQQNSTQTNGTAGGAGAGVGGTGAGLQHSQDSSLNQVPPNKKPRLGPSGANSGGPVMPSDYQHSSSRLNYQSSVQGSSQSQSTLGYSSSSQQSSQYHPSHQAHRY

[20] = target: Casein kinase I isoform delta (Homo sapiens) (UniProt P48730); experiment: Inhibition of CSNK1D (unknown origin) assessed as residual ligand binding level at 10000 nM relative to control
[21] = target: Dual specificity tyrosine-phosphorylation-regulated kinase 1B (Homo sapiens) (UniProt Q9Y463); experiment: Inhibition of DYRK1B (unknown origin) assessed as residual ligand binding level at 10000 nM relative to control
Sequence of Dual specificity tyrosine-phosphorylation-regulated kinase 1B (Homo sapiens) (Q9Y463 whole entry, looked up, canonical isoform): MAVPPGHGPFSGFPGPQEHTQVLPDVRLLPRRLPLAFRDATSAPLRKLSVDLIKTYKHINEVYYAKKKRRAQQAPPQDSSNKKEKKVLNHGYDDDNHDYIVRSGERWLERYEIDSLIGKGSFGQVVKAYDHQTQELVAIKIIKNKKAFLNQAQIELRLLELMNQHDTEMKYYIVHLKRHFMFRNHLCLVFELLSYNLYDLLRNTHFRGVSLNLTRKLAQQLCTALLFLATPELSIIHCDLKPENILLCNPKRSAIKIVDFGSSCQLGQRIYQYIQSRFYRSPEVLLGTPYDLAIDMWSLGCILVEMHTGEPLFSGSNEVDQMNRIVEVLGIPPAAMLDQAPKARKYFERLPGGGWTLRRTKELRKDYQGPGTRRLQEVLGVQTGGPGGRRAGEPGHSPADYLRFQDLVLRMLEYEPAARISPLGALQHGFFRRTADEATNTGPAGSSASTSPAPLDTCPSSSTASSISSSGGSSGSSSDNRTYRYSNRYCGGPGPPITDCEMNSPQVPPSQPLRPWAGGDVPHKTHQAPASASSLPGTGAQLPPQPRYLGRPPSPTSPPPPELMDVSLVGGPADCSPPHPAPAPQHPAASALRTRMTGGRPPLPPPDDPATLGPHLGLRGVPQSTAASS

[22] = target: Casein kinase I isoform alpha (Homo sapiens) (UniProt P48729); experiment: Inhibition of CSNK1A1 (unknown origin) assessed as residual ligand binding level at 10000 nM relative to control
[23] = target: Casein kinase I isoform gamma-1 (Homo sapiens) (UniProt Q9HCP0); experiment: Inhibition of CSNK1G1 (unknown origin) assessed as residual ligand binding level at 10000 nM relative to control
Sequence of Casein kinase I isoform gamma-1 (Homo sapiens) (Q9HCP0 whole entry, looked up, canonical isoform): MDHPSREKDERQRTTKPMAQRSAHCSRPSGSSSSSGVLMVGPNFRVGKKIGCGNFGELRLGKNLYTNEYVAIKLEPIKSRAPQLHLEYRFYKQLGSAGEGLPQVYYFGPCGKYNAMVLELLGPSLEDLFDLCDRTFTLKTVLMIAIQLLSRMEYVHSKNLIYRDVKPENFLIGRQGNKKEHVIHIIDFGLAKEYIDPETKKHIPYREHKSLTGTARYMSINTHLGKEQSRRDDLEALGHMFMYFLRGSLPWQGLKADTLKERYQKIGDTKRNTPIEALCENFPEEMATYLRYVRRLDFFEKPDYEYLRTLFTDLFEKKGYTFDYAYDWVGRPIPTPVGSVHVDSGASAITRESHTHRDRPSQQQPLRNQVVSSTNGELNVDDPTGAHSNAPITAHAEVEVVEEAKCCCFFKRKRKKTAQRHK

[24] = target: Dual specificity tyrosine-phosphorylation-regulated kinase 1A (Homo sapiens) (UniProt Q13627); experiment: Inhibition of DYRK1A (unknown origin) assessed as residual ligand binding level at 10000 nM relative to control
[25] = target: Casein kinase I isoform alpha-like (Homo sapiens) (UniProt Q8N752); experiment: Inhibition of CSNK1A1L (unknown origin) assessed as residual ligand binding level at 10000 nM relative to control
Sequence of Casein kinase I isoform alpha-like (Homo sapiens) (Q8N752 whole entry, canonical isoform): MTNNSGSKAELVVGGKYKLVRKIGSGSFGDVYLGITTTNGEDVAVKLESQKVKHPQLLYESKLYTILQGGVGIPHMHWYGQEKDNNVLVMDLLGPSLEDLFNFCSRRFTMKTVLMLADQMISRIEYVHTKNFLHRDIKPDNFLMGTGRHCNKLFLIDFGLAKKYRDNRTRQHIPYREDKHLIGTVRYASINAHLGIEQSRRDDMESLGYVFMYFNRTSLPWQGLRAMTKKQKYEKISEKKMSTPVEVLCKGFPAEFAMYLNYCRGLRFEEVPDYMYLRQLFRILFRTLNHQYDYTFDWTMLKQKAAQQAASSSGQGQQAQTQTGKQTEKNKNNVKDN

[26] = target: Casein kinase I isoform gamma-3 (Homo sapiens) (UniProt Q9Y6M4); experiment: Inhibition of CSNK1G3 (unknown origin) assessed as residual ligand binding level at 10000 nM relative to control
[27] = target: Casein kinase I isoform epsilon (Homo sapiens) (UniProt P49674); experiment: Inhibition of CSNK1E (unknown origin) assessed as residual ligand binding level at 10000 nM relative to control
Sequence of Casein kinase I isoform epsilon (Homo sapiens) (P49674 whole entry, looked up, canonical isoform): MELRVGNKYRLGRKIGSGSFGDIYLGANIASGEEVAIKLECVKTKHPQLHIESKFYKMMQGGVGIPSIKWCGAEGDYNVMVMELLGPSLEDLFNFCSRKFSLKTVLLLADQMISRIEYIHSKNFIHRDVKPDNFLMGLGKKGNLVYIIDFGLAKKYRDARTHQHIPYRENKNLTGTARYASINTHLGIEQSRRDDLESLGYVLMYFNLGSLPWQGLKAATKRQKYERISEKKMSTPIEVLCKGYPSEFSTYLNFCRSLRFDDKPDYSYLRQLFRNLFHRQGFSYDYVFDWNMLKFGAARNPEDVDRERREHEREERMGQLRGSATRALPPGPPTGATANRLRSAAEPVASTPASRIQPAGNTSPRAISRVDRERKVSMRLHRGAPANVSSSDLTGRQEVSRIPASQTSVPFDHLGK

[28] = Rescue of cell survival defect in RPS19-deficient erythroid progenitor cells isolated from mouse model of DBA assessed as live cell levels at 5 uM by 7-AAD dye based FACS analysis (reference value: 31%); type: functional
[29] = Rescue of cell survival defect in RPS19-deficient erythroid progenitor cells isolated from mouse model of DBA assessed as c-kit+ progenitor cell levels at 5 uM by 7-AAD dye based FACS analysis (reference value: 38%); type: functional

SMILES: COc1ccc(-c2cc(C3CC3)nc3sc(C(N)=O)c(N)c23)cc1
Activity [1]: Active

SMILES: CN(C)C(=O)Cc1ccc(N2CCCN(c3ccnc4sc(C(N)=O)c(N)c34)CC2)cc1
Activity [1]: Active
Activity [2]: 63%
Activity [3]: Active
inhibition [4]: Dose-dependent effect
Activity [5]: 70%
Activity [6]: Active
Activity [7]: Active
Activity [8]: Active

SMILES: CN1CCN(C(=O)c2ccc3cc(CCNc4ncnc5ccc(C#N)cc45)ccc3c2)CC1
Activity [1]: Active
Activity [3]: Active
Activity [6]: Active
Activity [7]: Active
Activity [8]: Active

ECmax [9]: inactive
SMILES: Cn1ncc2cc(-c3cnc(N)c(Cl)c3N3CCC4(CCNC4=O)CC3)ccc21
Activity [1]: Active

Activity [10]: 94%
Activity [11]: 95%
Activity [12]: 88%
Activity [13]: 73%
Activity [15]: 87%
Activity [16]: 61%
Activity [17]: 46%
Activity [18]: 72%
Activity [19]: 0%
Activity [20]: 10%
Activity [21]: 41%
Activity [22]: 11%
Activity [23]: 84%
Activity [24]: 50%
Activity [25]: 25%
Activity [26]: 67%
Activity [27]: 14%
SMILES: COCc1cc(C)nc2sc(C(N)=O)c(N)c12
Activity [1]: Active
Activity [14]: 84%

SMILES: CCc1nc2sc(C(N)=O)c(N)c2c2c1CCCC2
Activity [1]: Active

SMILES: Cn1cc(-c2ccc(-c3cncc(Cl)c3N3CCC4(CCNC4=O)CC3)cc2)cn1
Activity [1]: Active

SMILES: Cc1c(Br)c(Br)c2c3c1nc(N1CCNCC1)n3CCC2
Activity [1]: Active
Activity [3]: Active
Activity [6]: Active
Activity [7]: Active
Activity [8]: Active

inhibition [4]: Dose-dependent effect
SMILES: NC(=O)c1sc2nccc(N3CCCN(c4ccccc4)CC3)c2c1N
Activity [1]: Active

SMILES: N#Cc1ccc2ncnc(NCCc3ccccc3)c2c1
Activity [1]: Active
Activity [28]: 77%
Activity [29]: 65%

SMILES: Cc1c(C(N)=O)sc2nc(C(F)(F)F)cc(N)c12
Activity [1]: Active

inhibition [4]: Dose-dependent effect
SMILES: CN(C)c1ccnc2sc(C(N)=O)c(N)c12
Activity [1]: Active
